IC50 data for one compound are collected here from patent US6949565B2, “Protein kinase inhibitors” (Develogen Israel Ltd., priority 2000, dated 2005).

The assay deals with PKC. The assay can be described thus: PKC activity inhibition. In kind it is biochemical.

The structures appear in SMILES notation.

Consider `O=S(=O)(NCCNCC=Cc1ccc(Br)cc1)c1cccc2cnccc12` [H-89, N-[2-(p-bromocinnamylamino)ethyl]-5-isoquinolinesulfonamide], for which half-maximal inhibition (IC50) was put at 31 µM.

Usually IC50 stands for the point on the concentration scale where inhibition reaches its midpoint.
